Values of other authors, collected in PubChem BioAssay AID1259409 (Chemical Carcinogenesis Research Information System (CCRIS), 2018).
“And” between values parts separate entries of the source, which are not always exact repeats. Identical values can stand only once.

Tested on: rodent chemically induced tumor inhibition, incidence and multiplicity
Assay: CCRIS tumor inhibitor studies
[1] = Dose [Inhibitor]: 0, 1.5 MG 2/WK FOR 10 WK (STUDY DURATION: 65 WK), Route [Inhibitor]: INTRAMUSCULAR, Species: RAT, Strain/Sex: F344/MALE, Target Tissue: Type of Lesion: LIVER: HEPATOCELLULAR CARCINOMA, Dose [Carcinogen]: 100 UG 2/WK FOR 10 WK, Promoter: NONE USED

## O=C(O)[C@@H](O)[C@@H](O)[C@H](O)[C@@H](O)C(=O)O
Carcinogen: 7,12-DIMETHYLBENZ[A]ANTHRACENE, 57-97-6, Dose [Inhibitor]: 0, 2% IN DIET FOR THE DURATION OF STUDY BEGINNING 1 WK PRIOR TO CARCINOGEN DOSE (STUDY DURATION: 105 WK), Route [Inhibitor]: ORAL, Species: RAT, Strain/Sex: SPRAGUE-DAWLEY/FEMALE, Target Tissue: Type of Lesion: MAMMARY GLAND: TUMOR, Dose [Carcinogen]: 15 MG IN 1 ML SESAME OIL ONCE, Promoter: NONE USED
  tumour outcome (control, treated, inhibition, significance): 88%, 80%, 9%, not significant
Carcinogen: 7,12-DIMETHYLBENZ[A]ANTHRACENE, 57-97-6, Dose [Inhibitor]: 0, 128 MMOL/KG OF DIET FOR 15.5 WK BEGINNING 10 D POST CARCINOGEN DOSE (STUDY DURATION: 17 WK), Route [Inhibitor]: ORAL, Species: RAT, Strain/Sex: SPRAGUE-DAWLEY/FEMALE, Target Tissue: Type of Lesion: MAMMARY GLAND: TUMOR, Dose [Carcinogen]: 15 MG IN 1 ML OF SESAME OIL ONCE AT 50 D OF AGE, Promoter: NONE USED
  tumour outcome (control, treated, inhibition, significance): 92%, 58%, 37%, not calculated
Carcinogen: 7,12-DIMETHYLBENZ[A]ANTHRACENE, 57-97-6, Dose [Inhibitor]: 0, 128 MMOL/KG OF DIET FOR 18.5 WK BEGINNING 10 D PRIOR TO CARCINOGEN DOSE (STUDY DURATION: 18.5 WK), Route [Inhibitor]: ORAL, Species: RAT, Strain/Sex: SPRAGUE-DAWLEY/FEMALE, Target Tissue: Type of Lesion: MAMMARY GLAND: TUMOR, Dose [Carcinogen]: 15 MG IN 1 ML OF SESAME OIL ONCE AT 50 D OF AGE, Promoter: NONE USED
  tumour outcome (control, treated, inhibition, significance): 83%, 50%, 40%, not calculated
Carcinogen: 7,12-DIMETHYLBENZ[A]ANTHRACENE, 57-97-6, Dose [Inhibitor]: 0, 128 MMOL/KG OF DIET FOR 20 D BEGINNING 10 D PRIOR TO CARCINOGEN DOSE (STUDY DURATION: 18.5 WK), Route [Inhibitor]: ORAL, Species: RAT, Strain/Sex: SPRAGUE-DAWLEY/FEMALE, Target Tissue: Type of Lesion: MAMMARY GLAND: TUMOR, Dose [Carcinogen]: 15 MG IN 1 ML OF SESAME OIL ONCE AT 50 D OF AGE, Promoter: NONE USED
  tumour outcome (control, treated, inhibition, significance): 100%, 82%, 18%, not calculated
Carcinogen: 7,12-DIMETHYLBENZ[A]ANTHRACENE, 57-97-6, Dose [Inhibitor]: 32 MMOL/KG OF CHOW DIET IN 25 ML OF THE VEHICLE (ETHANOL/TRICAPRYLIN 1:4 (VOL/VOL) PLUS 6% (WT/VOL) ALPHA-TOCOPHEROL) BE, Route [Inhibitor]: ORAL, Species: RAT, Strain/Sex: SPRAGUE-DAWLEY/FEMALE, Target Tissue: Type of Lesion: MAMMARY GLAND: TUMOR, Dose [Carcinogen]: 75 MG/KG BW IN 1.0 ML SESAME OIL ONCE, Promoter: NONE USED
  tumour outcome (control, treated, inhibition, significance): 70%, 55%, 21%, not significant
Carcinogen: 7,12-DIMETHYLBENZ[A]ANTHRACENE, 57-97-6, Dose [Inhibitor]: 64 MMOL/KG OF CHOW DIET IN 25 ML OF THE VEHICLE (ETHANOL/TRICAPRYLIN 1:4 (VOL/VOL) PLUS 6% (WT/VOL) ALPHA-TOCOPHEROL) BE, Route [Inhibitor]: ORAL, Species: RAT, Strain/Sex: SPRAGUE-DAWLEY/FEMALE, Target Tissue: Type of Lesion: MAMMARY GLAND: TUMOR, Dose [Carcinogen]: 75 MG/KG BW IN 1.0 ML SESAME OIL ONCE, Promoter: NONE USED
  tumour outcome (control, treated, inhibition, significance): 70%, 55%, 21%, not significant
Carcinogen: 7,12-DIMETHYLBENZ[A]ANTHRACENE, 57-97-6, Dose [Inhibitor]: 128 MMOL/KG OF CHOW DIET IN 25 ML OF THE VEHICLE (ETHANOL/TRICAPRYLIN 1:4 (VOL/VOL) PLUS 6% (WT/VOL) ALPHA-TOCOPHEROL) B, Route [Inhibitor]: ORAL, Species: RAT, Strain/Sex: SPRAGUE-DAWLEY/FEMALE, Target Tissue: Type of Lesion: MAMMARY GLAND: TUMOR, Dose [Carcinogen]: 75 MG/KG BW IN 1.0 ML SESAME OIL ONCE, Promoter: NONE USED
  tumour outcome (control, treated, inhibition, significance): 70%, 35%, 50%, not significant
Carcinogen: AZOXYMETHANE [25843-45-2], Dose [Inhibitor]: 3.5% IN DIET FOR 38 WK BEGINNING 1 WK POST LAST CARCINOGEN DOSE (STUDY DURATION: 40 WK), Route [Inhibitor]: ORAL, Species: RAT, Strain/Sex: F344/MALE, Target Tissue: Type of Lesion: COLON: TUMOR, Dose [Carcinogen]: 15 MG/KG BW 1X/WK FOR 2 WK (STUDY DURATION: 40 WK), Promoter: NONE
  tumour outcome (control, treated, inhibition, significance): 15/26 (57.7%), 6/24 (25.0%), 57%, p<0.05

## CCCCC/C=C/CC/C=C/CCCCCCC(=O)O
Carcinogen: BENZO[A]PYRENE, 50-32-8, Dose [Inhibitor]: 0, 0.1 ML IN 0.1 ML OLIVE OIL 4 AND 2 D PRIOR TO CARCINOGEN DOSE (CYCLE REPEATED 4 X) (STUDY DURATION: 23 WK), Route [Inhibitor]: GAVAGE, Species: MOUSE, Strain/Sex: ICR/FEMALE, Target Tissue: Type of Lesion: STOMACH: PAPILLOMA, Dose [Carcinogen]: 2 MG IN 0.2 ML OLIVE OIL 1/WK FOR 4 WK
  tumour outcome (control, treated, inhibition, significance): 91%, 71%, 22%, p<0.05 and 96%, 96%, 0% and 100%, 71%, 29%, p<0.05

## C[C@]12CCC(=O)C=C1CC[C@@H]1[C@@H]2[C@@H](O)C[C@@]2(C)[C@H]1CC[C@]2(O)C(=O)CO
Carcinogen: METHYLAZOXYMETHANOL ACETATE, 592-62-1, Dose [Inhibitor]: 7.5 MG/KG BW DAILY FOR 3 WK STARTING 21 WK POST CARCINOGEN TREATMENT (STUDY DURATION: 30 WK), Route [Inhibitor]: INTRARECTAL, Species: RAT, Strain/Sex: DONRYU/MALE, Target Tissue: Type of Lesion: LARGE INTESTINE: ADENOCARCINOMA, Dose [Carcinogen]: 20 MG/KG BW 1/WK FOR 6 WK, Promoter: NONE USED
  tumour outcome (control, treated, inhibition, significance): 19/23 (83%), 16/29 (55%), 34%, p<0.05
Carcinogen: METHYLAZOXYMETHANOL ACETATE, 592-62-1, Dose [Inhibitor]: 7.5 MG/KG BW DAILY FOR 3 WK STARTING 21 WK POST CARCINOGEN TREATMENT (STUDY DURATION: 30 WK), Route [Inhibitor]: INTRARECTAL, Species: RAT, Strain/Sex: DONRYU/MALE, Target Tissue: Type of Lesion: SMALL INTESTINE: ADENOCARCINOMA, Dose [Carcinogen]: 20 MG/KG BW 1/WK FOR 6 WK, Promoter: NONE USED
  tumour outcome (control, treated, inhibition, significance): 10/23 (43%), 4/29 (14%), 67%, p<0.05
[1]
  tumour outcome (control, treated, inhibition, significance): 12/13 (92%), 15/24 (63%), 32%, p<0.05

## C[C@]12C[C@H](O)[C@H]3[C@@H](CCC4=CC(=O)CC[C@@]43C)[C@@H]1CC[C@@H]2C(=O)CO
[1]
  tumour outcome (control, treated, inhibition, significance): 12/13 (92%), 12/23 (52%), 43%, p<0.02

## O=C(c1ccc(O)cc1O)C(c1coc2cc(O)ccc2c1=O)C(c1ccc(O)cc1)c1ccc(O)cc1 (centres undefined)
Carcinogen: 7,12-DIMETHYLBENZ[A]ANTHRACENE, 57-97-6, Dose [Inhibitor]: 0, 16 NMOL 2/WK 1 HR PRIOR TO EACH PROMOTER DOSE FOR 20 WK (STUDY DURATION: 20 WK), Route [Inhibitor]: DERMAL, Species: MOUSE, Strain/Sex: ICR/FEMALE, Target Tissue: Type of Lesion: SKIN: TUMOR, Dose [Carcinogen]: 0.19 UMOL ONCE, Promoter: 12-0-TETRADECANOYLPHORBOL-13-ACETATE, 16561-29-8
  tumour outcome (control, treated, inhibition, significance): 70%, 60%, 14%, not calculated
